The values below come from PubChem BioAssay (NCI).

Test systems include M14 melanoma; SK-MEL-2 melanoma; U251 CNS; NCI-H522 lung; IGROV1 ovarian; MDA-MB-435; MDA-MB-231 breast; CCRF-CEM leukemia; CAKI-1 renal; MALME-3M melanoma.
Common to all, as to experiment: inhibition of tumour cell growth, NCI panel, 48 h

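Test compounds were applied to cells in 96-well plates for 48 hours at 5 doses. GI50: concentration for 50% inhibition of growth. TGI is the concentration that stops growth completely.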

As to `C=C(C)[C@@H]1CC[C@]2(CN)CC[C@]3(C)[C@H](CC[C@@H]4[C@@]5(C)CCC(N)[C@@](C)(CO)[C@@H]5CC[C@]43C)[C@@H]12` (stereo not given in full), the GI50 in the assay on M14 melanoma is 1.81 µM; with SK-MEL-2 melanoma, 1.89 µM; in the assay on U251 CNS, 1.61 µM; in the assay with NCI-H522 lung, 1.86 µM; with IGROV1 ovarian it was 1.92 µM; in the assay on MDA-MB-435, 1.85 µM. Besides, the GI50 in the assay on MDA-MB-231 breast is 1.84 µM; in the assay with CCRF-CEM leukemia, 1.71 µM; in the assay with CAKI-1 renal, 1.76 µM; with MALME-3M melanoma, 1.86 µM. In addition, the TGI came to 3.32 µM in the assay on M14 melanoma; 3.44 µM in the assay with SK-MEL-2 melanoma; 3.01 µM in the assay on U251 CNS; 3.5 µM in the assay on NCI-H522 lung; 3.65 µM in the assay on IGROV1 ovarian; 3.46 µM with MDA-MB-435. Further, the TGI in the assay with MDA-MB-231 breast is 3.32 µM; in the assay on CCRF-CEM leukemia, 3.65 µM; in the assay with CAKI-1 renal, 3.2 µM; with MALME-3M melanoma, 3.38 µM.

Take `C[C@@H]1OC(=O)NN=C1c1ccc(-c2ccc(F)cc2)c(C(F)(F)F)c1`: the GI50 was 7.14 µM in the assay on M14 melanoma; 0.141 µM with SK-MEL-2 melanoma; 10.2 µM in the assay on U251 CNS; 2.72 µM with NCI-H522 lung; 14.2 µM with IGROV1 ovarian; 3.57 µM with MDA-MB-435. In addition, the GI50 was 10.1 µM with MDA-MB-231 breast, 8.25 µM with CCRF-CEM leukemia, 4.88 µM in the assay on CAKI-1 renal and 12.5 µM in the assay with MALME-3M melanoma. Moreover, the TGI worked out at 21.6 µM in the assay with M14 melanoma; 13.1 µM in the assay on SK-MEL-2 melanoma; 23.3 µM with U251 CNS; 14.5 µM in the assay with NCI-H522 lung; 29.9 µM in the assay with IGROV1 ovarian; 13.9 µM in the assay with MDA-MB-435. The TGI in the assay on MDA-MB-231 breast was 24.9 µM; with CCRF-CEM leukemia, > 100 µM; in the assay with CAKI-1 renal, 18.7 µM; in the assay on MALME-3M melanoma it was 25.8 µM.

As to `CCOC(=O)C(=O)C(/C(=N/N(C)C)C(=O)Nc1ccc(C)cc1C)c1nc2ccccc2[nH]c1=O` (stereo not given), the TGI in the assay on M14 melanoma, with SK-MEL-2 melanoma, in the assay with U251 CNS, with NCI-H522 lung, in the assay on IGROV1 ovarian and with MDA-MB-435 was > 100 µM throughout. Further, the TGI in the assay on MDA-MB-231 breast, in the assay with CCRF-CEM leukemia, with CAKI-1 renal and in the assay with MALME-3M melanoma was > 100 µM throughout.

Regarding `O=C(Nc1ccc(-n2ccc3c(NC(=O)c4ccccc4)nccc32)cc1)c1ccc(N2CCOCC2)c(C(F)(F)F)c1`, the GI50 with M14 melanoma is 0.43 µM; with SK-MEL-2 melanoma, 0.236 µM; in the assay on U251 CNS, 0.0441 µM; in the assay on NCI-H522 lung, 0.363 µM; in the assay on IGROV1 ovarian it was 0.192 µM; in the assay with MDA-MB-435 it was 0.102 µM. Also, the GI50 in the assay with MDA-MB-231 breast was 4.07 µM; with CCRF-CEM leukemia, 0.44 µM; in the assay on CAKI-1 renal it was 0.0565 µM; with MALME-3M melanoma, 5.96 µM. For the same compound, the TGI is > 68.2 µM with M14 melanoma; 15.8 µM in the assay with SK-MEL-2 melanoma; 8.16 µM in the assay on U251 CNS; 18.2 µM in the assay on NCI-H522 lung; > 42.6 µM with IGROV1 ovarian; 41.8 µM in the assay on MDA-MB-435. Also, the TGI in the assay on MDA-MB-231 breast is > 60.9 µM; in the assay with CCRF-CEM leukemia it was > 100 µM; in the assay with CAKI-1 renal it was 15.7 µM; with MALME-3M melanoma it was 41.1 µM.

For the compound `C[C@@]1(O)CCC[C@H]1n1c(=O)c(C(F)F)cc2cnc(NC3CCN(S(C)(=O)=O)CC3)nc21`, the GI50 with M14 melanoma is 1.75 µM; in the assay with SK-MEL-2 melanoma, 2.28 µM; in the assay on U251 CNS, 1.67 µM; in the assay with NCI-H522 lung, 2.66 µM; in the assay on IGROV1 ovarian, 1.38 µM; in the assay on MDA-MB-435, 1.4 µM. The GI50 was 1.14 µM in the assay with MDA-MB-231 breast, 1.5 µM in the assay on CCRF-CEM leukemia, 3.45 µM in the assay on CAKI-1 renal and 1.29 µM with MALME-3M melanoma. Besides, the TGI is 7.62 µM in the assay on M14 melanoma; 6.34 µM in the assay on SK-MEL-2 melanoma; > 100 µM with U251 CNS; 15.3 µM with NCI-H522 lung; 43.7 µM in the assay with IGROV1 ovarian; 9.01 µM in the assay with MDA-MB-435. In addition, the TGI in the assay on MDA-MB-231 breast is 7.04 µM; in the assay with CCRF-CEM leukemia, > 100 µM; in the assay with CAKI-1 renal, > 100 µM; in the assay with MALME-3M melanoma, 5.37 µM.

In the case of `CN[C@H]1CC[C@]23C[C@]24CC[C@]2(C)[C@@H]([C@H](C)N(C)C)CC[C@@]2(C)[C@@H]4CC[C@H]3C1(C)C`, the TGI in the assay with M14 melanoma was determined as 37.2 µM; with SK-MEL-2 melanoma, 40 µM; with U251 CNS, 27.6 µM; in the assay with NCI-H522 lung, 34.1 µM; in the assay with IGROV1 ovarian it was 35.1 µM; with MDA-MB-435 it was 29.8 µM. Moreover, the TGI was 38.2 µM in the assay with MDA-MB-231 breast, 98.8 µM with CCRF-CEM leukemia, 45.9 µM with CAKI-1 renal and 32.6 µM with MALME-3M melanoma.

Turning to `CCN(CC)CCC(=O)N1C/C(=C/c2ccccc2)C(=O)/C(=C\c2ccccc2)C1`, the TGI turned out to be 6.63 µM in the assay on M14 melanoma; 5.08 µM in the assay on SK-MEL-2 melanoma; 1.9 µM in the assay on U251 CNS; 2.29 µM in the assay with NCI-H522 lung; 9.69 µM in the assay on IGROV1 ovarian; 5.5 µM in the assay with MDA-MB-435. The TGI in the assay on MDA-MB-231 breast was found to be 2.57 µM; in the assay on CCRF-CEM leukemia, 0.947 µM; with CAKI-1 renal it was 5.08 µM; with MALME-3M melanoma, 7.36 µM.

Take `COc1ccc(-c2cc(-c3ccc(Cl)cc3)nc(SCCCCCCC(=O)NO)n2)cc1`: the GI50 was 1.26 µM in the assay on M14 melanoma; 5.73 µM in the assay with SK-MEL-2 melanoma; 1.37 µM in the assay with U251 CNS; 1.2 µM in the assay with NCI-H522 lung; 1.41 µM in the assay with IGROV1 ovarian; 2.12 µM in the assay on MDA-MB-435. The GI50 in the assay on MDA-MB-231 breast was 1.74 µM; in the assay on CCRF-CEM leukemia it was 0.861 µM; in the assay with CAKI-1 renal, 1.32 µM; in the assay with MALME-3M melanoma it was 1.14 µM. Further, the TGI in the assay on M14 melanoma was 4.74 µM; in the assay on SK-MEL-2 melanoma, > 50 µM; with U251 CNS, 5.9 µM; with NCI-H522 lung it was 7.86 µM; in the assay with IGROV1 ovarian it was 12.5 µM; with MDA-MB-435 it was 11 µM. In addition, the TGI was found to be 8.89 µM in the assay with MDA-MB-231 breast, 14.4 µM in the assay with CCRF-CEM leukemia, 7.47 µM in the assay on CAKI-1 renal and 5.5 µM with MALME-3M melanoma.

Regarding `CC(C)Cc1ccc(C(C)/C=C2\CCC(CN3CCCCC3)C2=O)cc1` (stereo not given), the TGI with M14 melanoma is 18.2 µM; in the assay with SK-MEL-2 melanoma, 27 µM; in the assay with U251 CNS, 4.94 µM; with NCI-H522 lung it was 2.9 µM; in the assay on IGROV1 ovarian it was 9.05 µM; in the assay on MDA-MB-435, 28.2 µM. The TGI in the assay on MDA-MB-231 breast was determined as 17.2 µM; in the assay on CCRF-CEM leukemia it was 5.51 µM; in the assay on CAKI-1 renal, 20.4 µM; in the assay with MALME-3M melanoma it was 31.1 µM.
